From US20070254055A1, “Therapeutic Avenanthramide Compounds” (TRUSTEES OF TUFTS COLLEGE, priority 2003, published 2007)

Columns and labels:
[1] = tested on: human aortic smooth muscle cells (HSMC); test: Cell number counting, HSMC; assay type: cell-based; conditions: 120 μM
Description: (§2) HSMC or A10 cells (rat embryonic aortic smooth muscle cell) were seeded into 6-well plate at a density of 0.5×10^4/well. Four hr later 120 μM of avenanthramide were added to each well. At different time points (2d, 3d and 4d) the cells were trypsinzied and the total cell number were counted using a hemocytometer. Trypan blue exclusion test was carried out to determine the cell viability.

[2] = tested on: A10 cells (rat embryonic aortic smooth muscle cell); test: Cell number counting, A10 cells; assay type: cell-based
Description: as §2

NO production of HSMC = test: NO production, DAF-2 fluorescence assay, HSMC; assay type: cell-based, human
Source text: (§1) In addition to its vasodilating feature, NO has antiatherosclerotic properties, such as prevention of platelet aggregation, leukocyte adhesion, smooth muscle cell proliferation, and the expression of genes involved in atherogenesis. In this study, the human aortic smooth muscle cells (HSMC) and human aortic endothelia cells (HEC) were used to determine if avenanthramides can influence the NO production level. Synthetic Av-C was used in this experiment. The quantification of NO production was performed by the 4,5 diaminofluorescein (DAF-2) fluorescence assay. Briefly, cells were seeded into 24-well plate and let them grow to 90% confluent condition. The cells were pretreated with different concentrations of Avenanthramide for 24 h. The culture medium was then changed to PBS containing 100 μM L-arginine, 1 μM bradykinin and L-NAME. Then 0.1 μM of DAF-2 was added to each well. After another 2 h of incubation, 200 μL of supernatants were transferred to black microplates and the fluorescence was measured with a fluorescence microplate reader calibrated for excitation at 485 nm and emission at 538 nm.

NO production of HAEC = test: NO production, DAF-2 fluorescence assay, HAEC; assay type: cell-based, human; conditions: 120 μM, 24 h
Source text: as §1

VCAM-1 = test: HASMC expression of VCAM-1; assay type: cell-based, human
A10 SMC = test: Cell cycle distribution by flow cytometry, A10 cells; assay type: cell-based, rat; conditions: 120 μM, 48 h
Description: At 50% confluence (exponentially growing phase), A10 cells were seeded into 100 mm culture dishes and were treated with different concentrations of Avn for 48 h. Cells were then harvested by trypsin/EDTA treatment, washed with PBS and fixed with 70% ethanol at 4° C. for 1 hr. Prior to analysis, cells were washed again with PBS and stained with 1.0 mL of propidium iodide (PI) solution containing 25 μg/mL PI and 10 μg/mL RNase in PBS at 4° C. for 30 min in the dark. Cell cycle distributions were then analyzed by flow cytometry using the fluorescence-activated cell sorting (FACS) analysis. To calculate percentage of cells in respective phases of the cell cycle the DNA content frequency histograms were deconvoluted. Based on the DNA content, the cell cycle can be distinguished from G1 to S and G2-M phase.

cyclin D1 = test: Cyclin D1 expression Western blot, FBS-stimulated A10 cells; assay type: cell-based, rat; conditions: 10% FBS, 20 h, dose-dependent
Description: Protein from 5×10^4 cells was subjected to electrophoresis on 7.5-10% SDS-polyacrylamide gels and electro-transferred to nirocellulose membrane. Nonspecific binding was blocked by incubating with Tris-buffered saline (TBS) [137 mM NaCl, and 15 mM Tris-HCl (pH 7.6)] containing 5% non-fat milk (w/v) for 1 h at room temperature and then probed with primary antibody against p53, p21, p27, cyclin D1 and pRb overnight. After washing in TBS-Tween 20 buffer (0.075% v/v), the membranes were incubated with horseradish peroxidase-conjugated anti-IgG antibody. Proteins bound to the primary antibodies were detected with ECL detection reagents.
Cells were treated with 10% FBS in the presence and absence of substantially purified Avn-C as described above. 20 h after the addition of serum to quiescent A10 cells, the amount of cyclin D1 was measured by Western blotting using polyclonal anti-cyclin D1 antibody. β-Actin expression level was used as a loading control.

p53 = test: Half life of p53 protein, cycloheximide chase, A10 cells; assay type: cell-based, rat
Description: At 80% confluence, A10 cells seeded into 100 mm culture dishes and were treated with different concentrations of Av (0, 40, 80 and 120 μM) for 24 h. Following Avn treatment, the total cell extracts were harvested with 2× protein sample buffer [0.14 M Tris/HCl (pH 6.8), 22.4% glycerol, 6% SDS, 0.02% […], and 10% β-mercaptoethanol] by scraping the cells. The genomic DNA is sheared by passing through a 21-gauge syringe several times. The homogenized cell lysates were boiled for 5 min and centriftiged at 12,000 rpm for 5 min. Protein half life studies are performed as described before. Briefly, cells were treated with Avn for 4-6 h. […] Cells were harvested in 2× protein sample buffer at 0, 30, 60 and 120 min after cycloheximide addition. Protein samples were analyzed by Western blot.
P53 protein level is mainly regulated at a posttranslational level, usually via control of protein stability. To determine whether increased protein stability might play a role in the increased p53 levels induced by Avn treatment observed in this study, the change in half life of p53 protein in Avn-treated and nontreated cells was explored. […] Whole cell extract was prepared at different time points (0, 30 and 60 min.) and p53 protein levels were measured by Western blot. […]

In the case of `O=C(/C=C/c1ccc(O)c(O)c1)Nc1ccc(O)cc1C(=O)O` [Avn-C, Avenanthramide C], the “inhibition of cell growth” value ([1]; 4 days) is reported as “more than 50%”, the doubling time ([1]; HSMC) is reported as “more than 48 hr” and the “reduction in cell proliferation” value ([2]; 120 μM) is reported as 50%. The doubling time ([2]; A10, 120 μM) was “more than 48 hr”, the “increase of NO production” value (NO production of HSMC; 80 μM, HASMC) was 2.1 fold and the “increase in NO production compared with control” value (NO production of HSMC; 120 μM, 24 h, HSMC) was 3.0 folds. For the same molecule, the “increase in NO production compared with control” value (NO production of HAEC) was 8.8 folds, the “HASMC expression of VCAM-1” value (VCAM-1) was “not affected” and the “population of cells in G0/G1-phase” value (A10 SMC; growing cells (control 49.7%)) was 66.9%. For the same molecule, the “population of cells in S-phase” value (A10 SMC; growing cells (control about 40%)) was 25.7%, the “FBS-induced cyclin D expression” value (cyclin D1) was “attenuate” and the “p53 protein remaining after 1 h of cycloheximide treatment” value (p53; 80 uM for 6 h, then 15 μg/mL cycloheximide) was “More than half”. The “half-life of p53” value (p53; A10 cells (untreated about 20 min)) was “more than 1 h”.
